Patent US8273389B2, “Compositions comprising cinnamon oil (and/or its component cinnamaldehyde) and diallyl disulfide, their formulations, and methods of use” (Valent BioSciences Corporation, priority 2008, dated 2012)

Tested on: Meloidogyne incognita (Root-knot nematode)
Assay: Greenhouse pot test, root galling of cucumber seedlings by root-knot nematode
Type: in vivo
Settings: 25 ml soil drench, 800 J2 per pot, rated after 12-15 days, 0 = no galls, 9 = heavy galling; for Average Gall Rating (0-9): Example 2, 300 ppm AI (combined total for mixtures), nematode control 9; for Gall Rating (0-9): Example 3, 300 ppm AI (combined total for mixture), nematode control 8.25
Method: Tests are conducted in 2″ pots containing 125 grams non-pasteurized 2:1 sand soil mix containing 2 cucumber seedlings at the 1st true leaf stage (var. Straight Eight). Each treatment consists of 4 replicate pots. Application of test materials is carried out by drenching each pot with 25 milliliters of an aqueous dispersion of the formulation being tested. Several hours after the test materials are applied, 800, second stage juveniles (J2) of freshly hatched Meloidogyne incognita (Root-knot nematode), are applied to each pot with the exception of the untreated control. The pots are maintained for 12-15 days at standard greenhouse temperature and lighting conditions and watered as needed for the duration of the test. At harvest, the soil is removed from the roots by rinsing the roots in water. The roots are then rated for galling on a scale from 0-9 where 0 represents no galls and 9 represents heavy galling.
Tests are conducted in 2″ pots, as explained in Example 2 above.

SMILES: C=CCSSCC=C [Allyl disulfide (BAB-0294-75), diallyl disulfide]
- Average Gall Rating (0-9): 5
- Gall Rating (0-9): 3.25

SMILES: O=CC=Cc1ccccc1 [Cinnamaldehyde, cinnamaldehyde]
- Average Gall Rating (0-9): 7.75
- Gall Rating (0-9): 9
